The text below walks through data of PubChem BioAssay (NCI).

Test systems include SK-MEL-28 melanoma; SNB-19 CNS; DU-145 prostate; IGROV1 ovarian; MOLT-4 leukemia; SK-OV-3 ovarian; PC-3 prostate.
What all share (assay): NCI anticancer screen, dose series, 48 h

Structures are written as SMILES. Where “and” joins values, the source holds several entries; their conditions need not be identical. Equal values may be shown once.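 Interpolation was linear, between the two tested concentrations surrounding the appropriate level; five concentrations were tested over 48 hours in 96-well plates. GI50: concentration for 50% inhibition of growth. TGI is the concentration that stops growth completely.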

For `C#CCSc1n[nH]c(-c2ccco2)n1`, the TGI in the test on SK-MEL-28 melanoma, in the test with SNB-19 CNS, in the test with DU-145 prostate, with IGROV1 ovarian, in the test with MOLT-4 leukemia and in the test with SK-OV-3 ovarian was > 100 µM in each case. For the same molecule, in the test on PC-3 prostate, the TGI was > 100 µM.
As to `O=C(N/N=C/c1ccccc1O)C(O)(c1ccccc1)c1ccccc1`, the GI50 with SK-MEL-28 melanoma is > 100 µM; in the test on SNB-19 CNS, > 100 µM; in the test with DU-145 prostate, > 100 µM; with IGROV1 ovarian, 3.83 µM; with MOLT-4 leukemia it was 4.46 µM; in the test on SK-OV-3 ovarian, > 100 µM. Further, the GI50 in the test with PC-3 prostate was > 100 µM. Further, the TGI with SK-MEL-28 melanoma, with SNB-19 CNS, in the test with DU-145 prostate, with IGROV1 ovarian, in the test on MOLT-4 leukemia and with SK-OV-3 ovarian was > 100 µM throughout. The TGI with PC-3 prostate was > 100 µM.
`NC(=O)/C(=C\c1ccncc1)c1cccc2ccccc12`: the TGI in the test on SK-MEL-28 melanoma, with SNB-19 CNS, with DU-145 prostate, with IGROV1 ovarian, in the test with MOLT-4 leukemia and in the test on SK-OV-3 ovarian was > 100 µM throughout. Further, the TGI with PC-3 prostate is > 100 µM.
Turning to `COC(=O)[C@H]1C(=O)[C@@]2(C)[C@H]([C@H](OC(=O)c3ccccc3)[C@]3(O)C[C@H](OC(=O)[C@H](O)[C@@H](NC(=O)c4ccc(F)cc4)c4ccccc4)C(C)=C1C3(C)C)[C@]1(OC(C)=O)CO[C@@H]1C[C@@H]2O`, the GI50 is 0.0154 µM in the test on SK-MEL-28 melanoma; 0.0166 µM in the test on SNB-19 CNS; 0.00708 µM in the test with DU-145 prostate; 0.00478 µM in the test with IGROV1 ovarian; 0.0101 µM in the test with MOLT-4 leukemia; 0.0115 µM with SK-OV-3 ovarian. In addition, the GI50 with PC-3 prostate is 0.0164 µM. The TGI in the test on SK-MEL-28 melanoma was 22 µM; in the test on SNB-19 CNS, > 25 µM; with DU-145 prostate it was 0.023 µM; in the test on IGROV1 ovarian it was > 7.29 µM; with MOLT-4 leukemia, 3.42 µM; in the test with SK-OV-3 ovarian, > 25 µM. The TGI in the test on PC-3 prostate was > 25 µM.
Consider `CN1CCC(CNc2ccc3ncc(-c4cccc(OC(F)(F)F)c4)n3n2)CC1`, for which the GI50 is 1.55 µM and 1.61 µM in the test on SK-MEL-28 melanoma; 4.06 µM and 2.95 µM in the test with SNB-19 CNS; 3.35 µM and 3.6 µM in the test on DU-145 prostate; 2.91 µM and 2.27 µM in the test with IGROV1 ovarian; 2.12 µM and 1.45 µM in the test with MOLT-4 leukemia; 1.89 µM and 3.94 µM in the test with SK-OV-3 ovarian. Besides, the GI50 in the test with PC-3 prostate is 1.67 µM and 2.41 µM. In addition, the TGI was 2.99 µM and 3.14 µM with SK-MEL-28 melanoma; 16.5 µM and > 10 µM with SNB-19 CNS; 13.4 µM and > 10 µM in the test with DU-145 prostate; 9.09 µM and 9.11 µM with IGROV1 ovarian; 9.15 µM and 5.73 µM in the test on MOLT-4 leukemia; 4.98 µM and > 10 µM in the test with SK-OV-3 ovarian. Besides, the TGI in the test on PC-3 prostate is 7.13 µM and > 10 µM.
In the case of `COc1cc2c3c(c4ccc(OC)c(OC)c4c2cc1OC)CN1CCC[C@@H]1C3`, the TGI in the test with SK-MEL-28 melanoma stood at 7.43 µM; in the test on SNB-19 CNS it was 0.0826 µM; in the test with DU-145 prostate, 2.9 µM; in the test on IGROV1 ovarian it was 0.935 µM; in the test with MOLT-4 leukemia, 0.252 µM; in the test on SK-OV-3 ovarian it was 2.84 µM. The molecule further had a TGI with PC-3 prostate of 6.58 µM.
Take `CCCCCCCCCCCCNC(=O)[C@H]1CSC(c2cc3ccccc3s2)N1` (some centres not stated): the GI50 with SK-MEL-28 melanoma was 0.644 µM; in the test on SNB-19 CNS, 5.47 µM; in the test with DU-145 prostate, 1.21 µM; in the test on IGROV1 ovarian, 0.923 µM; in the test on MOLT-4 leukemia it was 0.657 µM; with SK-OV-3 ovarian, 4.16 µM. For the same molecule, in the test on PC-3 prostate, the GI50 is 1.3 µM. The TGI in the test with SK-MEL-28 melanoma came out at 1.39 µM; with SNB-19 CNS, 11.2 µM; in the test on DU-145 prostate it was 4.19 µM; in the test with IGROV1 ovarian it was 2.51 µM; in the test with MOLT-4 leukemia it was 1.37 µM; with SK-OV-3 ovarian, 8.38 µM. In addition, the TGI in the test on PC-3 prostate was determined as 4.21 µM.
Turning to `COC(=O)[C@H]1[C@@H](O)[C@@]2(O)c3c(OC)cc(O[C@@H]4O[C@@H]([C@H](O)CO)CO[C@H]4OC)cc3O[C@@]2(c2ccc(OC)cc2)[C@@H]1c1ccccc1`, the GI50 was 0.00321 µM in the test on SK-MEL-28 melanoma; 0.00277 µM in the test on SNB-19 CNS; 0.00416 µM in the test on DU-145 prostate; 0.00585 µM with IGROV1 ovarian; 0.0031 µM in the test on MOLT-4 leukemia; 0.00296 µM with SK-OV-3 ovarian. For the same molecule, the GI50 in the test with PC-3 prostate is 0.00405 µM. Besides, the TGI with SK-MEL-28 melanoma turned out to be 0.0119 µM; with SNB-19 CNS, 0.0384 µM; in the test on DU-145 prostate, 0.046 µM; in the test with IGROV1 ovarian, 0.0717 µM; with SK-OV-3 ovarian it was 0.0325 µM; with PC-3 prostate, 0.0338 µM.
In the case of `Cc1nc2ccccn2c1NC(=O)NNC(=S)Nc1ccc(Br)cc1`, the GI50 was 33 µM with SK-MEL-28 melanoma; 39.1 µM in the test on SNB-19 CNS; 45.9 µM in the test on DU-145 prostate; 48.9 µM in the test on IGROV1 ovarian; 36.7 µM in the test with MOLT-4 leukemia; 33 µM in the test with SK-OV-3 ovarian. Moreover, the GI50 with PC-3 prostate is 24.5 µM. For the same molecule, the TGI with SK-MEL-28 melanoma was 94 µM; in the test on SNB-19 CNS, > 100 µM; with DU-145 prostate, > 100 µM; in the test on IGROV1 ovarian, > 100 µM; in the test on MOLT-4 leukemia, > 100 µM; in the test on SK-OV-3 ovarian, 82.8 µM. For the same molecule, the TGI in the test with PC-3 prostate was > 100 µM.
Consider `O=C(NCCc1ccccc1)C(c1ccccc1)(c1ccccc1)c1ccccc1`, for which the GI50 in the test on SK-MEL-28 melanoma is 20.1 µM; with SNB-19 CNS it was 7.27 µM; with DU-145 prostate, 3.38 µM; in the test on IGROV1 ovarian, 28.8 µM; with MOLT-4 leukemia, > 100 µM; in the test on SK-OV-3 ovarian it was 26 µM. Besides, the GI50 in the test with PC-3 prostate is 31 µM. Also, the TGI in the test on SK-MEL-28 melanoma was > 100 µM; with SNB-19 CNS, > 100 µM; with DU-145 prostate it was 44.2 µM; in the test with IGROV1 ovarian, 70 µM; in the test on MOLT-4 leukemia it was > 100 µM; with SK-OV-3 ovarian, > 100 µM. Further, in the test on PC-3 prostate, the TGI was > 100 µM.
Turning to `COc1ccccc1-c1cc(/C=C2\C(=O)Nc3ncc(Br)cc32)cc(Br)c1O`, the GI50 with SK-MEL-28 melanoma is 14.8 µM; in the test on SNB-19 CNS, 12.5 µM; in the test on DU-145 prostate, 17.6 µM; in the test on IGROV1 ovarian, 10.4 µM; with MOLT-4 leukemia, 9.31 µM; in the test on SK-OV-3 ovarian, > 21.3 µM. Further, the GI50 in the test with PC-3 prostate was 9.18 µM. In addition, the TGI with SK-MEL-28 melanoma, with SNB-19 CNS, in the test on DU-145 prostate, in the test on IGROV1 ovarian, with MOLT-4 leukemia and in the test with SK-OV-3 ovarian was > 25 µM throughout. Besides, the TGI in the test with PC-3 prostate is > 25 µM.
